Patent US20220281848A1, “PYRAZOLE-SUBSTITUTED PYRROLIDINONES AS HERBICIDES” (FMC Corporation, priority 2019, published 2022)

Tested on: plants
Test: Test D pre-emergence, other plants of Tables D1 and D3
Format: in vivo
Settings: preemergent, 20 DAA
Method: A formulation containing 50 g/L of the test chemical was prepared by dissolving the active ingredient in a mixture of organic solvents and emulsifier, details of which are provided in the table. This formulation was then mixed with a small, variable amount of acetone to aid dissolution, before addition of a 0.2% v/v aqueous solution of an adjuvant, as the aqueous diluent, to form an aqueous spray solution which contains a predetermined concentration of the active ingredient.
This aqueous spray solution was then sprayed onto plants including maize and wheat that had been seed treated with a herbicide safener, after one day's cultivation (for pre-emergence) or after about 12 days' cultivation (for post-emergence). The plants were grown from seeds sown in standard soil, placed in a glasshouse under controlled conditions (at 24/18° C. or 20/16° C., day/night; 16 h light; 65% humidity). After spray application the plants were then grown in a glasshouse under the same conditions and watered twice daily. After 15 d for post-emergence and 20 DAA for pre-emergence the test was evaluated (100=total damage to plant; 0=no damage to plant).

Compound: CN1CC(c2cc(C(F)(F)F)n(C)n2)C(C(=O)Nc2ccc(F)cc2F)C1=O (racemic) [Compound 6]
- damage to plant (100=total damage to plant; 0=no damage to plant), ABUTH (rate 15): 0
- damage to plant (100=total damage to plant; 0=no damage to plant), ABUTH (rate 30): 0
- damage to plant (100=total damage to plant; 0=no damage to plant), ABUTH (rate 60): 0
- damage to plant (100=total damage to plant; 0=no damage to plant), ABUTH (rate 130): 0
- damage to plant (100=total damage to plant; 0=no damage to plant), ABUTH (rate 250): 0
- damage to plant (100=total damage to plant; 0=no damage to plant), ABUTH (rate 500): 0
- damage to plant (100=total damage to plant; 0=no damage to plant), AMARE (rate 15): 0
- damage to plant (100=total damage to plant; 0=no damage to plant), AMARE (rate 30): 0
- damage to plant (100=total damage to plant; 0=no damage to plant), AMARE (rate 60): 0
- damage to plant (100=total damage to plant; 0=no damage to plant), AMARE (rate 130): 0
- damage to plant (100=total damage to plant; 0=no damage to plant), AMARE (rate 250): 0
- damage to plant (100=total damage to plant; 0=no damage to plant), AMARE (rate 500): 0
- damage to plant (100=total damage to plant; 0=no damage to plant), BIDPI (rate 15): 0
- damage to plant (100=total damage to plant; 0=no damage to plant), BIDPI (rate 30): 0
- damage to plant (100=total damage to plant; 0=no damage to plant), BIDPI (rate 60): 0
- damage to plant (100=total damage to plant; 0=no damage to plant), BIDPI (rate 130): 0
- damage to plant (100=total damage to plant; 0=no damage to plant), BIDPI (rate 250): 0
- damage to plant (100=total damage to plant; 0=no damage to plant), BIDPI (rate 500): 0
- damage to plant (100=total damage to plant; 0=no damage to plant), BRAPL (rate 15): 0
- damage to plant (100=total damage to plant; 0=no damage to plant), BRAPL (rate 30): 50
- damage to plant (100=total damage to plant; 0=no damage to plant), BRAPL (rate 60): 60
- damage to plant (100=total damage to plant; 0=no damage to plant), BRAPL (rate 130): 80
- damage to plant (100=total damage to plant; 0=no damage to plant), BRAPL (rate 250): 80
- damage to plant (100=total damage to plant; 0=no damage to plant), BRAPL (rate 500): 90
- damage to plant (100=total damage to plant; 0=no damage to plant), CYPES (rate 15): 0
- damage to plant (100=total damage to plant; 0=no damage to plant), CYPES (rate 30): 0
- damage to plant (100=total damage to plant; 0=no damage to plant), CYPES (rate 60): 0
- damage to plant (100=total damage to plant; 0=no damage to plant), CYPES (rate 130): 0
- damage to plant (100=total damage to plant; 0=no damage to plant), CYPES (rate 250): 10
- damage to plant (100=total damage to plant; 0=no damage to plant), CYPES (rate 500): 80
- damage to plant (100=total damage to plant; 0=no damage to plant), DIGSA (rate 15): 0
- damage to plant (100=total damage to plant; 0=no damage to plant), DIGSA (rate 30): 30
- damage to plant (100=total damage to plant; 0=no damage to plant), DIGSA (rate 60): 90
- damage to plant (100=total damage to plant; 0=no damage to plant), DIGSA (rate 130): 90
- damage to plant (100=total damage to plant; 0=no damage to plant), DIGSA (rate 250): 90
- damage to plant (100=total damage to plant; 0=no damage to plant), DIGSA (rate 500): 100
- damage to plant (100=total damage to plant; 0=no damage to plant), ECHCG (rate 15): 0
- damage to plant (100=total damage to plant; 0=no damage to plant), ECHCG (rate 30): 20
- damage to plant (100=total damage to plant; 0=no damage to plant), ECHCG (rate 60): 20
- damage to plant (100=total damage to plant; 0=no damage to plant), ECHCG (rate 130): 80
- damage to plant (100=total damage to plant; 0=no damage to plant), ECHCG (rate 250): 90
- damage to plant (100=total damage to plant; 0=no damage to plant), ECHCG (rate 500): 100
- damage to plant (100=total damage to plant; 0=no damage to plant), ELEIN (rate 15): 0
- damage to plant (100=total damage to plant; 0=no damage to plant), ELEIN (rate 30): 0
- damage to plant (100=total damage to plant; 0=no damage to plant), ELEIN (rate 60): 0
- damage to plant (100=total damage to plant; 0=no damage to plant), ELEIN (rate 130): 0
- damage to plant (100=total damage to plant; 0=no damage to plant), ELEIN (rate 250): 0
- damage to plant (100=total damage to plant; 0=no damage to plant), ELEIN (rate 500): 0
- damage to plant (100=total damage to plant; 0=no damage to plant), EPHHL (rate 15): 0
- damage to plant (100=total damage to plant; 0=no damage to plant), EPHHL (rate 30): 0
- damage to plant (100=total damage to plant; 0=no damage to plant), EPHHL (rate 60): 0
- damage to plant (100=total damage to plant; 0=no damage to plant), EPHHL (rate 130): 0
- damage to plant (100=total damage to plant; 0=no damage to plant), EPHHL (rate 250): 0
- damage to plant (100=total damage to plant; 0=no damage to plant), EPHHL (rate 500): 0
- damage to plant (100=total damage to plant; 0=no damage to plant), GLXMA (rate 15): 0
- damage to plant (100=total damage to plant; 0=no damage to plant), GLXMA (rate 30): 0
- damage to plant (100=total damage to plant; 0=no damage to plant), GLXMA (rate 60): 0
- damage to plant (100=total damage to plant; 0=no damage to plant), GLXMA (rate 130): 0
- damage to plant (100=total damage to plant; 0=no damage to plant), GLXMA (rate 250): 0
- damage to plant (100=total damage to plant; 0=no damage to plant), GLXMA (rate 500): 0
- damage to plant (100=total damage to plant; 0=no damage to plant), IPOHE (rate 15): 0
- damage to plant (100=total damage to plant; 0=no damage to plant), IPOHE (rate 30): 0
- damage to plant (100=total damage to plant; 0=no damage to plant), IPOHE (rate 60): 0
- damage to plant (100=total damage to plant; 0=no damage to plant), IPOHE (rate 130): 0
- damage to plant (100=total damage to plant; 0=no damage to plant), IPOHE (rate 250): 0
- damage to plant (100=total damage to plant; 0=no damage to plant), IPOHE (rate 500): 0
- damage to plant (100=total damage to plant; 0=no damage to plant), ORYSA (rate 15): 0
- damage to plant (100=total damage to plant; 0=no damage to plant), ORYSA (rate 30): 0
- damage to plant (100=total damage to plant; 0=no damage to plant), ORYSA (rate 60): 0
- damage to plant (100=total damage to plant; 0=no damage to plant), ORYSA (rate 130): 0
- damage to plant (100=total damage to plant; 0=no damage to plant), ORYSA (rate 250): 0
- damage to plant (100=total damage to plant; 0=no damage to plant), ORYSA (rate 500): 0
- damage to plant (100=total damage to plant; 0=no damage to plant), PANMI (rate 15): 0
- damage to plant (100=total damage to plant; 0=no damage to plant), PANMI (rate 30): 0
- damage to plant (100=total damage to plant; 0=no damage to plant), PANMI (rate 60): 0
- damage to plant (100=total damage to plant; 0=no damage to plant), PANMI (rate 130): 0
- damage to plant (100=total damage to plant; 0=no damage to plant), PANMI (rate 250): 0
- damage to plant (100=total damage to plant; 0=no damage to plant), PANMI (rate 500): 0
- damage to plant (100=total damage to plant; 0=no damage to plant), SETFA (rate 15): 0
- damage to plant (100=total damage to plant; 0=no damage to plant), SETFA (rate 30): 0
- damage to plant (100=total damage to plant; 0=no damage to plant), SETFA (rate 60): 10
- damage to plant (100=total damage to plant; 0=no damage to plant), SETFA (rate 130): 80
- damage to plant (100=total damage to plant; 0=no damage to plant), SETFA (rate 250): 90
- damage to plant (100=total damage to plant; 0=no damage to plant), SETFA (rate 500): 90
- damage to plant (100=total damage to plant; 0=no damage to plant), SORVU (rate 15): 0
- damage to plant (100=total damage to plant; 0=no damage to plant), SORVU (rate 30): 0
- damage to plant (100=total damage to plant; 0=no damage to plant), SORVU (rate 60): 0
- damage to plant (100=total damage to plant; 0=no damage to plant), SORVU (rate 130): 0
- damage to plant (100=total damage to plant; 0=no damage to plant), SORVU (rate 250): 0
- damage to plant (100=total damage to plant; 0=no damage to plant), SORVU (rate 500): 0
